# Measurements reported in patent publication US20230081426A1, “COMPOUNDS AND METHODS FOR KRAS MODULATION AND INDICATIONS THEREFOR” (Plexxikon Inc., priority 2020, published 2023).
# Tests used:
# [1] = biological target: T1, G12V-mutant human KRAS (amino acid residues 1-188) (Homo sapiens, UniProt P01116, G12V); assay: KRAS Binding Competition Assay (AlphaScreen; biotinylated KRpep-2d analogue), G12V; settings: geometric mean, read-out: KRAS GMean IC50 (uM) MUTATION: G12V
# T1 construct: G12V-mutant human KRAS (amino acid residues 1-188) with FLAG tag was purified from E. coli; made in house; host or cells: E. coli
# Description: Compound binding disrupts the interaction of KRpep-2d with KRAS, leading to a decrease in Alpha signal.
# All assay components were prepared in 20 mM HEPES (pH 7.5), 100 mM NaCl, 5 mM MgCl2, 0.01% Tween-20, and 0.01% BSA. Biotinylated analogues of KRpep-2d were custom synthesized. The binding competition assays were performed using 10 nM of mutant KRAS and 10 nM of biotinylated KRpep-2d analogue. 19 μL of KRAS protein and 4 μL of biotinylated KRpep-2d were added to the wells of a 384-well plate containing 1 μL of various concentrations of test compound or DMSO vehicle. 16 wells containing KRAS, biotinylated KRpep-2d, and 5% DMSO served as high controls. 16 wells containing KRAS only and 5% DMSO served as low controls. Binding reactions were incubated for 1 hour at 25° C., then Anti-Flag Acceptor and Streptavidin Donor Alpha beads were added at a final concentration of 10 μg/mL for an additional hour at room temperature. Alpha signal was read out on a Perkin Elmer Envision HTS instrument. The percentage inhibition at individual compound concentrations relative to high and low controls was calculated. The data were analyzed by using nonlinear regression to generate IC50 values.
# [2] = biological target: T2, G12D-mutant human KRAS (amino acid residues 1-188) (Homo sapiens, UniProt P01116, G12D); assay: KRAS Binding Disruption Assay (AlphaScreen; biotinylated KRpep-2d analogue or RAF1-RBD), G12D; settings: KRAS G12D; geometric mean; read-out: KRAS GMean IC50 (uM) MUTATION: G12D
# T2 construct: G12D or G12C-mutant human KRAS (amino acid residues 1-188) with FLAG tag; made in house; host or cells: E. coli
# In short: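 Compounds are titrated against 5-20 nM mutant KRAS and 5-20 nM of either a biotinylated KRpep-2d analogue or RAF1-RBD, incubated 1 h at 25° C. Disruption is detected as reduced Alpha signal after 1 h with donor and acceptor beads at 10 μg/mL.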
Structure (SMILES),IC50 [1] [µM],IC50 [2] [µM]
"CN1CCC[C@H]1COc1nc(N2C[C@H]3CC[C@@H](C2)N3)c2ccc(-c3cncc(Cl)c3Cl)cc2n1 [P-0234, 4-((1R,5S)-3,8-diazabicyclo[3.2.1]octan-3-yl)-7-(4,5-dichloropyridin-3-yl)-2-(((S)-1-methylpyrrolidin-2-yl)methoxy)quinazoline]",100 to 1000,10 to 100
"CN1CCC[C@H]1COc1nc(N2[C@@H]3CC[C@H]2CN(C(=O)C2CCC(=O)N2)C3)c2ccc(-c3cc(O)cc4ccccc34)cc2n1 (stereo partly drawn) [P-0222, 5-((1R,5S)-8-(7-(3-hydroxynaphthalen-1-yl)-2-(((S)-1-methylpyrrolidin-2-yl)methoxy)quinazolin-4-yl)-3,8-diazabicyclo[3.2.1]octane-3-carbonyl)pyrrolidin-2-one]",100 to 1000,10 to 100
"N#CCc1cccc2[nH]cc(-c3ccc4c(N5C[C@H]6CC[C@@H](C5)N6)nc(OCC56CCCN5CCC6)nc4c3F)c12 [P-0615, 2-(3-(4-((1R,5S)-3,8-diazabicyclo[3.2.1]octan-3-yl)-8-fluoro-2-((tetrahydro-1H-pyrrolizin-7a(5H)-yl)methoxy)quinazolin-7-yl)-1H-indol-4-yl)acetonitrile]",10 to 100,0.0001 to 10
"CC(=O)NCC(=O)N1[C@@H]2CC[C@H]1CN(c1nc(OCC34CCCN3CCC4)nc3cc(-c4cc(O)cc5ccccc45)ccc13)C2 [P-0091, N-(2-((1R,5S)-3-(7-(3-hydroxynaphthalen-1-yl)-2-((tetrahydro-1H-pyrrolizin-7a(5H)-yl)methoxy)quinazolin-4-yl)-3,8-diazabicyclo[3.2.1]octan-8-yl)-2-oxoethyl)acetamide]",0.0001 to 10,0.0001 to 10
"NC(=O)CCc1nc(N2[C@@H]3CC[C@H]2CNC3)c2ccc(-c3cc(O)cc4ccccc34)cc2n1 [P-0233, 3-(4-((1R,5S)-3,8-diazabicyclo[3.2.1]octan-8-yl)-7-(3-hydroxynaphthalen-1-yl)quinazolin-2-yl)propanamide]",0.0001 to 10,0.0001 to 10
"CN1CCN(CCCS(=O)(=O)N2[C@@H]3CC[C@H]2CN(c2nc(OC[C@@H]4CCCN4C)nc4c(F)c(-c5cc(O)cc6ccccc56)ccc24)C3)CC1 [P-0434, 4-(8-fluoro-4-((1R,5S)-8-((3-(4-methylpiperazin-1-yl)propyl)sulfonyl)-3,8-diazabicyclo[3.2.1]octan-3-yl)-2-(((S)-1-methylpyrrolidin-2-yl)methoxy)quinazolin-7-yl)naphthalen-2-ol]",10 to 100,0.0001 to 10
"CN(C)c1cccc(/C=C/c2nc(N3C[C@H]4CC[C@@H](C3)N4)c3cc(Cl)c(-c4c(O)cccc4F)c(F)c3n2)c1 [P-0362, 2-(4-((1R,5S)-3,8-diazabicyclo[3.2.1]octan-3-yl)-6-chloro-2-((E)-3-(dimethylamino)styryl)-8-fluoroquinazolin-7-yl)-3-fluorophenol]",0.0001 to 10,0.0001 to 10
"N#Cc1ccc(CCc2nc(N3[C@@H]4CC[C@H]3CNC4)c3ccc(-c4cc(O)cc5ccccc45)cc3n2)cc1 [P-0197, 4-(2-(4-((1R,5S)-3,8-diazabicyclo[3.2.1]octan-8-yl)-7-(3-hydroxynaphthalen-1-yl)quinazolin-2-yl)ethyl)benzonitrile]",10 to 100,0.0001 to 10
"Cc1[nH]c2ccccc2c1-c1ccc2c(N3C[C@H]4CC[C@@H](C3)N4)nc(OCC34CCCN3CCC4)nc2c1F [P-0626, 4-((1R,5S)-3,8-diazabicyclo[3.2.1]octan-3-yl)-8-fluoro-7-(2-methyl-1H-indol-3-yl)-2-((tetrahydro-1H-pyrrolizin-7a(5H)-yl)methoxy)quinazoline]",10 to 100,0.0001 to 10
"CN1CCC[C@H]1COc1nc(N2CC[C@@H]3CC[C@H](C2)N3C(=O)NC2CCOC2)c2ccc(-c3cc(O)cc4ccccc34)c(F)c2n1 (stereo partly drawn) [P-0248, (1R,6 S)-3-(8-fluoro-7-(3-hydroxynaphthalen-1-yl)-2-(((S)-1-methylpyrrolidin-2-yl)methoxy)quinazolin-4-yl)-N-(tetrahydrofuran-3-yl)-3,9-diazabicyclo[4.2.1]nonane-9-carboxamide]",0.0001 to 10,10 to 100
"Oc1cccc(F)c1-c1c(Cl)cc2c(N3C[C@H]4CC[C@@H](C3)N4)nc(OCC34CCCN3CCC4)nc2c1F [P-0392, 2-(4-((1R,5S)-3,8-diazabicyclo[3.2.1]octan-3-yl)-6-chloro-8-fluoro-2-((tetrahydro-1H-pyrrolizin-7a(5H)-yl)methoxy)quinazolin-7-yl)-3-fluorophenol]",10 to 100,0.0001 to 10
"CN1CCC[C@H]1COc1nc(N2C[C@H]3CC[C@@H](C2)N3)c2ccc(-c3ccnc(N)c3)cc2n1 [P-0168, 4-(4-((1R,5S)-3,8-diazabicyclo[3.2.1]octan-3-yl)-2-(((S)-1-methylpyrrolidin-2-yl)methoxy)quinazolin-7-yl)pyridin-2-amine]",10 to 100,100 to 1000
"Fc1cc2c(N3C[C@H]4CC[C@@H](C3)N4)nc(OCC34CCCN3CCC4)nc2c(F)c1-c1c[nH]c2ccc(Cl)c(F)c12 [P-0441, 4-((1R,5S)-3,8-diazabicyclo[3.2.1]octan-3-yl)-7-(5-chloro-4-fluoro-1H-indol-3-yl)-6,8-difluoro-2-((tetrahydro-1H-pyrrolizin-7a(5H)-yl)methoxy)quinazoline]",0.0001 to 10,0.0001 to 10
"CN1CCC[C@H]1COc1nc(N2C[C@H]3CC[C@@H](C2)N3)c2ccc(N3CCNc4ccccc43)c(F)c2n1 [P-0306, 4-((1R,5S)-3,8-diazabicyclo[3.2.1]octan-3-yl)-7-(3,4-dihydroquinoxalin-1(2H)-yl)-8-fluoro-2-(((S)-1-methylpyrrolidin-2-yl)methoxy)quinazoline]",10 to 100,0.0001 to 10
"CN1CCC[C@H]1COc1nc(N2C[C@H]3CC[C@@H](C2)N3)c2ccc(-c3cc(N)cc(F)c3F)cc2n1 [P-0158, 3-(4-((1R,5S)-3,8-diazabicyclo[3.2.1]octan-3-yl)-2-(((S)-1-methylpyrrolidin-2-yl)methoxy)quinazolin-7-yl)-4,5-difluoroaniline]",10 to 100,10 to 100
"CN1CCC[C@H]1COc1nc(N2C[C@H]3CC[C@@H](C2)N3CC(=O)N2CCNCC2)c2ccc(-c3cc(O)cc4ccccc34)c(F)c2n1 [P-0471, 2-((1R,5S)-3-(8-fluoro-7-(3-hydroxynaphthalen-1-yl)-2-(((S)-1-methylpyrrolidin-2-yl)methoxy)quinazolin-4-yl)-3,8-diazabicyclo[3.2.1]octan-8-yl)-1-(piperazin-1-yl)ethan-1-one]",100 to 1000,0.0001 to 10
"CN1CCC[C@H]1COc1nc(N2[C@@H]3CC[C@H]2CN(CC(=O)N2CCNCC2)C3)c2ccc(-c3cc(O)cc4ccccc34)cc2n1 [P-0269, 2-((1R,5S)-8-(7-(3-hydroxynaphthalen-1-yl)-2-(((S)-1-methylpyrrolidin-2-yl)methoxy)quinazolin-4-yl)-3,8-diazabicyclo[3.2.1]octan-3-yl)-1-(piperazin-1-yl)ethan-1-one]",10 to 100,0.0001 to 10
"CN1CCC[C@H]1COc1nc(N2C[C@H]3CC[C@@H](C2)N3C(=N)N)c2ccc(-c3cc(O)cc4ccccc34)c(F)c2n1 [P-0468, (1R,5S)-3-(8-fluoro-7-(3-hydroxynaphthalen-1-yl)-2-(((S)-1-methylpyrrolidin-2-yl)methoxy)quinazolin-4-yl)-3,8-diazabicyclo[3.2.1]octane-8-carboximidamide]",10 to 100,0.0001 to 10
"Nc1cc(-c2c(F)cc3c(N4C[C@H]5CC[C@@H](C4)N5)nc(OCC45CCCN4CCC5)nc3c2F)ccc1Cl [P-0609, 5-(4-((1R,5S)-3,8-diazabicyclo[3.2.1]octan-3-yl)-6,8-difluoro-2-((tetrahydro-1H-pyrrolizin-7a(5H)-yl)methoxy)quinazolin-7-yl)-2-chloroaniline]",100 to 1000,10 to 100
"O=C(OC1CCOC1)N1[C@@H]2CC[C@H]1CN(c1nc(OCC34CCCN3CCC4)nc3cc(-c4cc(O)cc5ccccc45)ccc13)C2 (stereo partly drawn) [P-0098, Tetrahydrofuran-3-yl (1R,5S)-3-(7-(3-hydroxynaphthalen-1-yl)-2-((tetrahydro-1H-pyrrolizin-7a(5H)-yl)methoxy)quinazolin-4-yl)-3,8-diazabicyclo[3.2.1]octane-8-carboxylate]",0.0001 to 10,0.0001 to 10
"CN1CCC[C@H]1COc1nc(N2CC3CCC2CN3)c2ccc(-c3cc(O)cc4ccccc34)c(F)c2n1 (stereo partly drawn) [P-0327, 4-(4-(2,5-diazabicyclo[2.2.2]octan-2-yl)-8-fluoro-2-(((S)-1-methylpyrrolidin-2-yl)methoxy)quinazolin-7-yl)naphthalen-2-ol]",10 to 100,0.0001 to 10
